The results in this text go back to ChEMBL document CHEMBL1201862, “PubChem BioAssay data set” (2004).

Test systems include A549; SF-539; HCC 2998; SK-MEL-2; MOLT-4; LOX IMVI; MCF7; M14; SK-MEL-28; UO-31; DU-145; OVCAR-8; T47D; K562; NCI/ADR-RES; SNB-75; U-251; NCI-H226; 786-0; BT-549.
Holding throughout (test): growth of human tumour cells (NCI), 48 h

The structures appear in SMILES notation.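 Dose response: 5 concentrations. Exposure: 48 h. Format: 96-well plates. Endpoint: linear interpolation; highest concentration if not reached. At the GI50, growth is halved.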 Calls of active or inactive are those of the source. Rule as the data show it: active = GI50 up to about 1.1 µM and inactive = higher. Where a SMILES comes first, the peptide text is derived from it. Bridges are numbered along the chain shown (N, C = ends). The star is where a group is joined. Cbz = O=C(OCc1ccccc1)*

Take `CCOC(=O)c1csc(NC(=O)CN2CCOCC2)n1`: the GI50 is > 100 µM (inactive) with A549; > 100 µM (inactive) in the test on SF-539; > 100 µM (inactive) in the test on HCC 2998; > 100 µM (inactive) in the test on SK-MEL-2; 17.1 µM (inactive) in the test on MOLT-4; > 100 µM (inactive) in the test on LOX IMVI. Besides, the GI50 in the test on MCF7, with M14, with SK-MEL-28, with UO-31, in the test with DU-145 and with OVCAR-8 was > 100 µM (inactive) in each case. Also, the GI50 with T47D, with K562, in the test with NCI/ADR-RES, in the test on SNB-75 and with U-251 was > 100 µM (inactive) each time.
In the case of `CCN(CC)CCNC(=O)C1COc2ccc(-c3cc(=O)c4ccccc4o3)cc2O1` (stereo not given), the GI50 in the test with A549 was 23.6 µM (inactive); in the test with SF-539, 15.8 µM (inactive); in the test on HCC 2998 it was 19.2 µM (inactive); with SK-MEL-2, 19.8 µM (inactive); with MOLT-4 it was 20.6 µM (inactive); in the test with LOX IMVI, 17.2 µM (inactive). Moreover, the GI50 in the test with MCF7 was 19.4 µM (inactive); with SK-MEL-28, 17.4 µM (inactive); in the test with UO-31, 16 µM (inactive); in the test on OVCAR-8 it was 16.7 µM (inactive); with K562, 16 µM (inactive); in the test on NCI/ADR-RES, 19.2 µM (inactive). In addition, the figures for the GI50 in the test with NCI-H226, with SNB-75 and in the test with U-251 were 16.6 µM (inactive), 17.2 µM (inactive) and > 45.2 µM (inactive), respectively.
As for `Cc1cn2c(C)csc2c1P(=O)(OC(C)C)OC(C)C`, the GI50 in the test on A549, in the test on SF-539, with 786-0, with HCC 2998, in the test on SK-MEL-2 and in the test with MOLT-4 was > 100 µM (inactive) in each case. The GI50 in the test with LOX IMVI, in the test on MCF7, in the test on M14, in the test with SK-MEL-28, with BT-549 and in the test with UO-31 was > 100 µM (inactive) in each case. Moreover, the GI50 in the test on DU-145, with OVCAR-8, with K562, in the test with NCI/ADR-RES, with SNB-75 and with U-251 was > 100 µM (inactive) throughout.
Regarding `Cc1cc(C)c(C2CC(O)C(CO)O2)cc1C` (stereo not given), the GI50 in the test with A549, with SF-539, in the test with 786-0, in the test with HCC 2998, in the test on SK-MEL-2 and in the test with MOLT-4 was > 100 µM (inactive) throughout. The GI50 in the test with LOX IMVI, in the test with M14, in the test with SK-MEL-28, with BT-549, in the test on UO-31 and in the test on OVCAR-8 was > 100 µM (inactive) each time. Also, the GI50 in the test with K562 was > 100 µM (inactive); with NCI/ADR-RES it was 67.5 µM (inactive); in the test on NCI-H226, > 100 µM (inactive); in the test on SNB-75, > 100 µM (inactive); in the test with U-251, > 100 µM (inactive).
Turning to `CCNc1ncnc2nn[nH]c12`, the GI50 in the test with A549, in the test with SF-539, with 786-0, in the test with HCC 2998, in the test on SK-MEL-2 and in the test on MOLT-4 was > 100 µM (inactive) throughout. Also, the GI50 in the test with LOX IMVI, in the test on MCF7, in the test on M14, with SK-MEL-28, in the test with UO-31 and in the test with DU-145 was > 100 µM (inactive) each time. Moreover, the GI50 with OVCAR-8, in the test on T47D, with K562, in the test with NCI/ADR-RES, in the test on NCI-H226 and in the test on SNB-75 was > 100 µM (inactive) in each case. In the test with U-251, the GI50 is > 100 µM (inactive).
Consider `CCOP(=O)(O)C1C(CO)OC(n2ccc(=O)[nH]c2=O)C1O` (stereo not given), for which the GI50 in the test on A549, with SF-539, in the test on 786-0, in the test with HCC 2998, in the test with SK-MEL-2 and with MOLT-4 was > 100 µM (inactive) in each case. Moreover, the GI50 in the test on LOX IMVI, in the test on M14, in the test on SK-MEL-28, in the test with BT-549, in the test on UO-31 and with OVCAR-8 was > 100 µM (inactive) in each case. The GI50 with T47D, in the test on K562, in the test with NCI-H226 and in the test with SNB-75 was > 100 µM (inactive) in each case.
On to `CC(O)C(NC(=O)C(CS)NC(=O)C(CO)NC(=O)C(CCCCN)NC(=O)C(Cc1c[nH]c2ccccc12)NC(=O)C(Cc1ccc(O)cc1)NC(=O)C(CS)NC(=O)C(N)Cc1ccccc1)C(N)=O` (stereo not given), for which the GI50 with A549, in the test on SF-539, in the test on 786-0, in the test on HCC 2998, with SK-MEL-2 and in the test with MOLT-4 was > 25 µM (inactive) throughout. For the same compound, the GI50 was > 25 µM (inactive) in the test with LOX IMVI; > 25 µM (inactive) with MCF7; > 25 µM (inactive) in the test with M14; 26.9 µM (inactive) in the test on SK-MEL-28; > 25 µM (inactive) in the test on UO-31; > 25 µM (inactive) in the test with DU-145. Moreover, the GI50 in the test with OVCAR-8 is > 25 µM (inactive); in the test on T47D, > 25 µM (inactive); in the test on K562, > 25 µM (inactive); in the test on NCI/ADR-RES, > 25 µM (inactive); with NCI-H226, > 25 µM (inactive); with SNB-75, 25 µM (inactive). The GI50 in the test on U-251 was > 25 µM (inactive).
With `S=C(NN=C1NCCCCN1)Nc1ccc(Cl)cc1`, the GI50 in the test with A549 was 11.8 µM (inactive); with SF-539 it was 28.2 µM (inactive); in the test on 786-0, 7.35 µM (inactive); in the test on HCC 2998, 18.1 µM (inactive); in the test on SK-MEL-2, 22.3 µM (inactive); with MOLT-4, 6.67 µM (inactive). Besides, the GI50 with LOX IMVI was 11.7 µM (inactive); in the test on MCF7, 34 µM (inactive); with M14, 8.09 µM (inactive); with SK-MEL-28, 31 µM (inactive); with BT-549 it was 64.3 µM (inactive); with UO-31, 9.44 µM (inactive). Further, the GI50 in the test with OVCAR-8 is 10.3 µM (inactive); in the test with T47D it was 39.8 µM (inactive); in the test with K562, 5.85 µM (inactive); with NCI/ADR-RES it was 23.4 µM (inactive); in the test on NCI-H226, > 100 µM (inactive); in the test on SNB-75, 23.8 µM (inactive). In addition, the GI50 with U-251 was 7.71 µM (inactive).
Turning to `CC(=O)OC[C@H]1O[C@@H](O[C@H]2[C@H](OC(C)=O)C=CO[C@@H]2COC(C)=O)C(OC(C)=O)[C@H]2OC(C)(C)O[C@H]21` (stereo not given in full), the GI50 in the test on A549, in the test on SF-539, with 786-0, in the test on HCC 2998, in the test on MOLT-4 and in the test on LOX IMVI was > 100 µM (inactive) throughout. In addition, the GI50 in the test on MCF7 is > 100 µM (inactive); in the test with M14, > 100 µM (inactive); in the test with SK-MEL-28, > 100 µM (inactive); in the test with BT-549, 36.6 µM (inactive); in the test on UO-31, > 100 µM (inactive); in the test on OVCAR-8, > 100 µM (inactive). In addition, the GI50 with T47D is 64.4 µM (inactive); in the test with K562 it was > 100 µM (inactive); with NCI/ADR-RES it was > 100 µM (inactive); with NCI-H226, > 100 µM (inactive); in the test on SNB-75, 30.5 µM (inactive); in the test on U-251, > 100 µM (inactive).
`COc1ccc(-c2csc3c2-n2cccc2C3=O)cc1`: the GI50 with A549 is 0.159 µM (active); with SF-539, 0.0304 µM (active); in the test on 786-0, 0.303 µM (active); in the test with HCC 2998, 0.344 µM (active); in the test with SK-MEL-2, 0.366 µM (active); with MOLT-4, 0.0444 µM (active). The GI50 in the test on LOX IMVI was 0.0458 µM (active); with MCF7 it was 0.18 µM (active); in the test with M14, 0.0346 µM (active); with SK-MEL-28 it was 0.406 µM (active); with BT-549 it was 8.93 µM (inactive); with UO-31 it was 0.11 µM (active). Moreover, the GI50 is 0.175 µM (active) in the test on DU-145; 0.0867 µM (active) in the test with OVCAR-8; < 0.0285 µM (active) in the test with K562; < 0.0204 µM (active) with NCI/ADR-RES; 4.46 µM (inactive) in the test with NCI-H226; 0.0964 µM (active) in the test on SNB-75. Moreover, in the test on U-251, the GI50 is 0.0326 µM (active).
For `COC(=O)C1CCCCNC(=O)CCC(NC(=O)OCc2ccccc2)C(=O)N1` (stereo not drawn) (Cbz-Glu-Lys-OMe; lactam 1-2; configuration not given here), the GI50 with A549 was > 100 µM (inactive); with SF-539, > 100 µM (inactive); with 786-0, 43.6 µM (inactive); in the test on SK-MEL-2 it was > 100 µM (inactive); with MOLT-4, > 100 µM (inactive); with LOX IMVI, > 100 µM (inactive). Also, the GI50 with MCF7, with M14, with SK-MEL-28, with UO-31, in the test with DU-145 and with OVCAR-8 was > 100 µM (inactive) throughout. Besides, the GI50 in the test with T47D is > 100 µM (inactive); in the test with K562, > 100 µM (inactive); with NCI/ADR-RES it was > 100 µM (inactive); with NCI-H226, > 100 µM (inactive); with SNB-75, > 100 µM (inactive); in the test with U-251 it was 39.3 µM (inactive).
